Test system: 388556-164-R-J1-PDC complex spheroid viability
Assay: Anticancer human tumor 388556-164-R-J1-PDC patient-derived colon adenocarcinoma cell line growth inhibition [RAS]
Settings: for IC50: curve of first compound; for viability, T/C: stronger effect = lower value
Excerpt: RAS pathway inhibitors in Combinations in Complex Spheroids
A high-throughput screen of multi-cell type tumor spheroids was designed to identify active combinations of RAS pathway inhibitors and targeted small molecules. Complex spheroids include a stromal component modeled by human endothelial cells (HUVEC) and fibroblasts modeled by human mesenchymal stem cells (MSCs). The concentration ranges selected for each drug and investigational agent were based upon clinically achievable concentrations if the clinical Cmax of the agent was known.
Compounds. The drugs and investigational agents: abemaciclib (NSC768073), cobimetinib (NSC768068), divarasib (GDC6063, NSC841802), docetaxel (NSC628503), GDC-1971 (RLY-1971, NSC841576), gemcitabine (NSC613327), inavolisib (NSC800729), ipatasertib (NSC767898), KB-0742 (NSC834161), MRTX-1133 (NSC836407), osimertinib (NSC779217), RMC-4630 (NSC839698), RMC-6236 (NSC851965), RMC-6291 (NSC852671), Ro-3306 (NSC812927), sapanisertib (NSC764658), SN-38 (NSC673596), staurosporine (NSC755774), SY5609 (NSC837396), and tovorafenib (DAY101, NSC766906), were obtained from the National Cancer Institute (NCI) Developmental Therapeutics Program Chemical Repository. The FDA-approved anticancer drug set is available from the NCI Developmental Therapeutics Program. […] The stock solutions were prepared in dimethyl sulfoxide (DMSO, Sigma-Aldrich, St. Louis, MO, cat. D2650) at 800-fold the tested concentration and stored at -70 degrees C prior to their use. All drugs and investigational agents were tested over a range starting from a high concentration at or near the clinical Cmax and decreasing in half-log increments. If the clinical Cmax for an agent had not been determined, the highest concentration tested was 10 microM.
Cell Culture. All cells were maintained in an incubator at 37 degrees C and 5% CO2 with 95% humidity. The PDC lines were cultured according to standard operating procedures established by the NCI PDMR. All PDCs were thawed and cultured in Matrigel-coated flasks prepared with a working solution of 1X Ham's F-12 nutrient mix, without supplementation (Invitrogen, Waltham, MA, cat. 11765054), 100 U/mL penicillin-streptomycin (Invitrogen, cat. 15140122), and 2.5% Matrigel (Corning Inc., Corning, NY, cat. 354248) for the first three passages. The 362531-283-R-J2-PDC and 782815-120-R-J1-PDC lines were cultured in 6C/Colon 1B media, which includes advanced DMEM/F-12 (Thermo Fisher Scientific, cat. 12634028), 10 mM HEPES (Thermo Fisher Scientific, cat. 15630080), 1X GlutaMAX supplement (Thermo Fisher Scientific, cat. 35050061), 0.1 mg/mL primocin (InvivoGen, San Diego, CA, cat. ant-pm-2), 10% defined fetal bovine serum, heat inactivated (HyClone Laboratories Inc., Logan, UT, cat. SH30070.03HI), 50% L-WRN conditioned media (ATCC, cat. CRL-3276), 1.25 mM N-Acetyl-L-cysteine (Sigma-Aldrich, cat. A9165), 10 mM nicotinamide (Sigma-Aldrich, cat. N0636), 1X B-27 supplement (Thermo Fisher Scientific, cat. 17504044), 1X N-2 supplement (Thermo Fisher Scientific, cat. 17502048), 50 ng/mL human EGF (Thermo Fisher Scientific, cat. PHG0311), and 10 microM Y-27632 dihydrochloride (Tocris Bioscience, cat. 1254). The K12877-001-R-J1-PDC line was cultured in 6I media, which includes all 6C/Colon 1B media plus 10 ng/mL human FGF-10 (PeproTech, cat. 100-26), 1 ng/mL human FGF-2 (PeproTech, cat. 100-18B), 1 µM prostaglandin E2 (Tocris Bioscience, cat. 2296), […] hydrocortisone (Sigma-Aldrich, cat. H4001), and […] bovine insulin (Sigma-Aldrich, cat. I6634). The K86415-001-R-J1-PDC line was cultured in 6D media, which includes all 6C/Colon 1B media components minus the L-WRN conditioned media. The 485176-168-R4-J1-PDC was cultured in PANC media, which includes all 6C/Colon 1B media plus 100 ng/mL human FGF-10 (PeproTech, cat. 100-26), 500 nM SB-431542 (Selleckchem, cat. S1067), and 10 nM gastrin (Tocris Bioscience, cat. 3006). […]

[1] = second compound 0.0316 µM, first compound 0.0316 µM
[2] = second compound 0.0316 µM, first compound 0.1 µM
[3] = second compound 0.0316 µM, first compound 0.316 µM
[4] = second compound 0.0316 µM, first compound 1 µM
[5] = second compound 0.1 µM, first compound 0.0316 µM
[6] = second compound 0.1 µM, first compound 0.1 µM
[7] = second compound 0.1 µM, first compound 0.316 µM
[8] = second compound 0.1 µM, first compound 1 µM
[9] = second compound 0.316 µM, first compound 0.0316 µM
[10] = second compound 0.316 µM, first compound 0.1 µM
[11] = second compound 0.316 µM, first compound 0.316 µM
[12] = second compound 0.316 µM, first compound 1 µM
[13] = second compound 1 µM, first compound 0.0316 µM
[14] = second compound 1 µM, first compound 0.1 µM
[15] = second compound 1 µM, first compound 0.316 µM
[16] = second compound 1 µM, first compound 1 µM
[17] = second compound 3.16 µM, first compound 0.0316 µM
[18] = second compound 3.16 µM, first compound 0.1 µM
[19] = second compound 3.16 µM, first compound 0.316 µM
[20] = second compound 3.16 µM, first compound 1 µM
[21] = second compound 10 µM, first compound 0.0316 µM
[22] = second compound 10 µM, first compound 0.1 µM
[23] = second compound 10 µM, first compound 0.316 µM
[24] = second compound 10 µM, first compound 1 µM
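Further: spheroids exposed to compound for 7 days before readout.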
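Wherever viability, T/C is given: 100% = DMSO vehicle control luminescence.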

`CC(Nc1ccc2c(c1)OCCn1cc(N3C(=O)OCC3C(F)F)nc1-2)C(N)=O` (centres undefined) + C#Cc1c(F)ccc2cc(O)cc(-c3ncc4c(N5CC6CCC(C5)N6)nc(OCC56CCCN5CC(F)C6)nc4c3F)c12 was tested, and the IC50 (second compound 0.0316 µM) was over 10000 nM, the IC50 (second compound 0.1 µM) was over 10000 nM and the IC50 (second compound 0.316 µM) was over 10000 nM. For the same compound, the IC50 (second compound 1 µM) was 8110 nM, the IC50 (second compound 3.16 µM) was 2960 nM and the IC50 (second compound 10 µM) was 1040 nM. For the same compound, the viability, T/C [1] was 94.9%, the viability, T/C [2] was 95.5% and the viability, T/C [3] was 94%. The viability, T/C [4] was 78.8%, the viability, T/C (second compound 0.0316 µM, first compound 3.16 µM) was 76.6% and the viability, T/C (second compound 0.0316 µM, first compound 10 µM) was 66.6%. For the same compound, the viability, T/C [5] was 93.6%, the viability, T/C [6] was 90.7% and the viability, T/C [7] was 83.3%. For the same compound, the viability, T/C [8] was 81%, the viability, T/C (second compound 0.1 µM, first compound 3.16 µM) was 77% and the viability, T/C (second compound 0.1 µM, first compound 10 µM) was 62.3%. It also gave a viability, T/C [9] of 94.8%, a viability, T/C [10] of 84.3% and a viability, T/C [11] of 74.2%. It also gave a viability, T/C [12] of 69.9%, a viability, T/C (second compound 0.316 µM, first compound 3.16 µM) of 72% and a viability, T/C (second compound 0.316 µM, first compound 10 µM) of 51.9%. It also gave a viability, T/C [13] of 82.1%, a viability, T/C [14] of 89.9% and a viability, T/C [15] of 58.1%. For the same compound, the viability, T/C [16] was 69.4%, the viability, T/C (second compound 1 µM, first compound 3.16 µM) was 69.2% and the viability, T/C (second compound 1 µM, first compound 10 µM) was 43.6%. It also gave a viability, T/C [17] of 82.4%, a viability, T/C [18] of 63.2% and a viability, T/C [19] of 64.2%. The viability, T/C [20] was 59.5%, the viability, T/C (second compound 3.16 µM, first compound 3.16 µM) was 53.3% and the viability, T/C (second compound 3.16 µM, first compound 10 µM) was 38.4%. For the same compound, the viability, T/C [21] was 59.4%, the viability, T/C [22] was 57.2% and the viability, T/C [23] was 55.1%. It also gave a viability, T/C [24] of 50.8%, a viability, T/C (second compound 10 µM, first compound 3.16 µM) of 29.5% and a viability, T/C (second compound 10 µM, first compound 10 µM) of 31.1%.
Compound `O=C(c1ccc(F)c(F)c1Nc1ccc(I)cc1F)N1CC(O)([C@@H]2CCCCN2)C1` + C#Cc1c(F)ccc2cc(O)cc(-c3ncc4c(N5CC6CCC(C5)N6)nc(OCC56CCCN5CC(F)C6)nc4c3F)c12 has an IC50 (second compound 0.0316 µM) of 170 nM, an IC50 (second compound 0.1 µM) of 196 nM and an IC50 (second compound 0.316 µM) of 135 nM. It also gave an IC50 (second compound 1 µM) of 104 nM, an IC50 (second compound 3.16 µM) of 84.8 nM and an IC50 (second compound 10 µM) of 24.1 nM. For the same compound, the viability, T/C (second compound 0.0316 µM, first compound 0.00316 µM) was 100%, the viability, T/C (second compound 0.0316 µM, first compound 0.01 µM) was 95.1% and the viability, T/C [1] was 79%. It also gave a viability, T/C [2] of 61.6%, a viability, T/C [3] of 37.2% and a viability, T/C [4] of 22.1%. For the same compound, the viability, T/C (second compound 0.1 µM, first compound 0.00316 µM) was 99.7%, the viability, T/C (second compound 0.1 µM, first compound 0.01 µM) was 103% and the viability, T/C [5] was 86%. It also gave a viability, T/C [6] of 66.1%, a viability, T/C [7] of 39.2% and a viability, T/C [8] of 22.2%. The viability, T/C (second compound 0.316 µM, first compound 0.00316 µM) was 100%, the viability, T/C (second compound 0.316 µM, first compound 0.01 µM) was 99.4% and the viability, T/C [9] was 64.3%. The viability, T/C [10] was 59.3%, the viability, T/C [11] was 35.9% and the viability, T/C [12] was 17.2%. The viability, T/C (second compound 1 µM, first compound 0.00316 µM) was 89.8%, the viability, T/C (second compound 1 µM, first compound 0.01 µM) was 81.8% and the viability, T/C [13] was 55.4%. It also gave a viability, T/C [14] of 60.5%, a viability, T/C [15] of 31.6% and a viability, T/C [16] of 16.9%. The viability, T/C (second compound 3.16 µM, first compound 0.00316 µM) was 79%, the viability, T/C (second compound 3.16 µM, first compound 0.01 µM) was 62.9% and the viability, T/C [17] was 61.8%. For the same compound, the viability, T/C [18] was 51.5%, the viability, T/C [19] was 32.2% and the viability, T/C [20] was 15.7%. It also gave a viability, T/C (second compound 10 µM, first compound 0.00316 µM) of 56.7%, a viability, T/C (second compound 10 µM, first compound 0.01 µM) of 62.1% and a viability, T/C [21] of 45.3%. The viability, T/C [22] was 31%, the viability, T/C [23] was 19.1% and the viability, T/C [24] was 17.1%.

— PubChem BioAssay AID2060907 (Molecular Pharmacology Branch, DTP, NCI, 2025)
